# “And” between values parts separate entries of the source, which are not always exact repeats. Equal values may be shown once. Read-outs that look alike come from different tables or passages of the source.
# Tests used:
# [1] = Plasma PK study in WT and NF1 minipigs (LC-MS/MS, noncompartmental); type: in vivo, minipig; conditions: for AUC: read-out: AUC0?∞
# Protocol: Plasma isolation was performed as described in a previous study.[13] […] Tissues were harvested and immediately transferred to cryovials and stored at −80°C until analysis.
# (§1) Standard curves and controls were generated using corresponding untreated tissue. Skin tissue was treated with collagenase, and all organ tissues were homogenized. Liquid extraction with ethyl acetate was then performed, followed by analysis. […] The chromatographic separation was performed as described.[13] Mass spectrometric detection was performed using multiple reaction monitoring in positive ionization mode. […] Ion source gases 1 and 2 were set at 50 and 50 psi, respectively; the curtain gas was at 20 psi and the collision gas at 4 psi. […] Data acquisition was performed with analyst 1.4.1 software (MDS-SCIEX).
# The PK parameters included AUC–time curve from time 0 to ∞ (linear up, log down), Cmax, Tmax, and T1/2.
# [2] = Tissue PK, LC-MS/MS; type: in vivo, minipig; conditions: for concentration at 2 h: po
# Protocol: WT (n = 8) and NF1 (n = 8) minipigs received a single human equivalent oral dose of 450 mg (7.3 mg/kg). Untreated WT (n = 4) and NF1 (n = 4) minipigs were also enrolled as controls. All animals were euthanized 2 h after drug administration. Tissue samples were collected from each animal at the same approximate locations and divided for analysis.
# Selumetinib PK studies were performed in plasma, skin, sciatic nerve, optic nerve, and brain. Plasma isolation was performed as described in a previous study.[13] […] Tissues were harvested and immediately transferred to cryovials and stored at −80°C until analysis.
# as §1
# [3] = female, minipig, po, 7.3 mg/kg, individual NF1 F minipigs, single oral 7.3 mg/kg
# [4] = female, minipig, po, 7.3 mg/kg, individual WT F minipigs, single oral 7.3 mg/kg
# [5] = individual NF1 F minipigs, single oral 7.3 mg/kg, 7.3 mg/kg
# [6] = individual NF1 M minipigs, single oral 7.3 mg/kg, 7.3 mg/kg
# [7] = individual WT F minipigs, single oral 7.3 mg/kg, 7.3 mg/kg
# [8] = individual WT M minipigs, single oral 7.3 mg/kg, 7.3 mg/kg
# [9] = minipig, po, 7.3 mg/kg, all 16 minipigs (WT and NF1), median (range), single oral 7.3 mg/kg
# [10] = minipig, po, 7.4 mg/kg, NF1 minipigs, 7.4 mg/kg single oral dose, median (range)
# [11] = minipig, po, 7.4 mg/kg, WT minipigs, 7.4 mg/kg single oral dose, median (range)
# [12] = 2 h after single oral 7.3 mg/kg, P = .03
# [13] = NF1 minipigs n = 8, 2 h after single oral 7.3 mg/kg
# [14] = WT minipigs n = 8, 2 h after single oral 7.3 mg/kg
# [15] = all 16 minipigs, 2 h after single oral 7.3 mg/kg
# [16] = all 16 minipigs, 2 h after single oral 7.3 mg/kg, 7.3 mg/kg
# [17] = individual NF1/F minipigs, 2 h after single oral 7.3 mg/kg, 7.3 mg/kg
# [18] = individual NF1/M minipigs, 2 h after single oral 7.3 mg/kg, 7.3 mg/kg
# [19] = individual WT/F minipigs, 2 h after single oral 7.3 mg/kg, 7.3 mg/kg
# [20] = individual WT/M minipigs, 2 h after single oral 7.3 mg/kg, 7.3 mg/kg
structure (smiles),measurement,setting,value
Cn1cnc2c(F)c(Nc3ccc(Br)cc3Cl)c(C(=O)NOCCO)cc21 [selumetinib],Clast,"[1]; all 16 minipigs (WT and NF1), median (range), single oral 7.3 mg/kg",22.7 ng/mL
same,k el,"[1]; female, minipig, individual WT F minipigs, single oral 7.3 mg/kg",2.78e-05 s⁻¹
same,half-life,[1]; [3],7.5 h
same,AUC,[1]; [3],3560 ng·h/mL
same,Cmax,"[1]; female, minipig, po, 7.3 mg/kg, individual NF1 F minipigs, single oral 7.3 mg/kg, read-out: Cmax",812 ng/mL
same,half-life,[1]; [4],7.1 h
same,AUC,[1]; [4],3680 ng·h/mL
same,Cmax,"[1]; female, minipig, po, 7.3 mg/kg, individual WT F minipigs, single oral 7.3 mg/kg, read-out: Cmax",636 ng/mL
same,Kel,"[1]; individual NF1 F minipigs, single oral 7.3 mg/kg",0.1 h⁻¹
same,AUC0?∞,[1]; [5],5896 ng·h/mL and 5255 ng·h/mL and 4287 ng·h/mL
same,Cmax,[1]; [5],678 ng/mL and 633 ng/mL and 571 ng/mL
same,T1/2,[1]; [5],7.6 h and 8.0 h and 8.2 h
same,Tmax,[1]; [5],2.0 h and 0.5 h
same,AUC0?∞,[1]; [6],4116 ng·h/mL and 6092 ng·h/mL and 4344 ng·h/mL
same,Cmax,[1]; [6],1480 ng/mL and 294 ng/mL and 766 ng/mL and 547 ng/mL
same,T1/2,[1]; [6],7.3 h and 14.7 h and 10.6 h and 6.1 h
same,Tmax,[1]; [6],2.0 h
same,AUC0?∞,[1]; [7],5722 ng·h/mL and 5468 ng·h/mL and 5843 ng·h/mL
same,Cmax,[1]; [7],573 ng/mL and 1040 ng/mL and 1020 ng/mL
same,T1/2,[1]; [7],10.1 h and 6.7 h and 7.8 h
same,Tmax,[1]; [7],2.0 h and 0.5 h
same,Kel,"[1]; individual WT M minipigs, single oral 7.3 mg/kg",0.1 h⁻¹
same,AUC0?∞,[1]; [8],3558 ng·h/mL and 9926 ng·h/mL and 5995 ng·h/mL and 5040 ng·h/mL
same,Cmax,[1]; [8],266 ng/mL and 621 ng/mL and 861 ng/mL and 1270 ng/mL
same,T1/2,[1]; [8],6.7 h and 10.6 h and 11.8 h
same,Tmax,[1]; [8],5 h and 0.5 h and 2.1 h
same,k el,"[1]; male, minipig, individual NF1 M minipigs, single oral 7.3 mg/kg",2.78e-05 s⁻¹
same,AUC,"[1]; male, minipig, po, 7.3 mg/kg, individual NF1 M minipigs, single oral 7.3 mg/kg",7930 ng·h/mL
same,Tmax,"[1]; male, minipig, po, 7.3 mg/kg, individual NF1 M minipigs, single oral 7.3 mg/kg, read-out: Tmax",1.1 h
same,half-life,"[1]; male, minipig, po, 7.3 mg/kg, individual WT M minipigs, single oral 7.3 mg/kg",12.3 h
same,k el,"[1]; minipig, all 16 minipigs (WT and NF1), median (range), single oral 7.3 mg/kg",2.78e-05 s⁻¹
same,AUC(0-inf),[1]; [9],5360 ng·h/mL
same,half-life,[1]; [9],7.9 h
same,Cmax,"[1]; minipig, po, 7.3 mg/kg, all 16 minipigs (WT and NF1), median (range), single oral 7.3 mg/kg, read-out: Cmax",657 ng/mL
same,Tmax,"[1]; minipig, po, 7.3 mg/kg, all 16 minipigs (WT and NF1), median (range), single oral 7.3 mg/kg, read-out: Tmax",~1 h
same,AUC(0-inf),[1]; [10],4800 ng·h/mL
same,half-life,[1]; [10],7.8 h
same,Cmax,"[1]; minipig, po, 7.4 mg/kg, NF1 minipigs, 7.4 mg/kg single oral dose, median (range), read-out: Cmax",656 ng/mL
same,Tmax,"[1]; minipig, po, 7.4 mg/kg, NF1 minipigs, 7.4 mg/kg single oral dose, median (range), read-out: Tmax",1.1 h
same,AUC(0-inf),[1]; [11],5600 ng·h/mL
same,half-life,[1]; [11],9 h
same,Cmax,"[1]; minipig, po, 7.4 mg/kg, WT minipigs, 7.4 mg/kg single oral dose, median (range), read-out: Cmax",749 ng/mL
same,"mean selumetinib concentration in cerebral cortex, NF1 compared to WT minipigs",[2]; [12],higher
same,"mean selumetinib concentration in optic nerve, NF1 compared to WT minipigs",[2]; [12],higher
same,"Selumetinib concentration in tissues, Cerebral cortex, Range (NF1)",[2]; [13],(20-105) ng/g
same,"Selumetinib concentration in tissues, Optic nerve, Range (NF1)",[2]; [13],(4-101) ng/g
same,"Selumetinib concentration in tissues, Sciatic nerve, Range (NF1)",[2]; [13],(5-36) ng/g
same,"Selumetinib concentration in tissues, Skin, Range (NF1)",[2]; [13],(14-155) ng/g
same,"Selumetinib concentration in tissues, Cerebral cortex, Range (WT)",[2]; [14],(15-76) ng/g
same,"Selumetinib concentration in tissues, Optic nerve, Range (WT)",[2]; [14],(7-46) ng/g
same,"Selumetinib concentration in tissues, Sciatic nerve, Range (WT)",[2]; [14],(6-51) ng/g
same,"Selumetinib concentration in tissues, Skin, Range (WT)",[2]; [14],(9-111) ng/g
same,"Selumetinib concentration in tissues, Cerebral cortex, Range (All)",[2]; [15],(15-105) ng/g
same,"Selumetinib concentration in tissues, Optic nerve, Range (All)",[2]; [15],(4-101) ng/g
same,"Selumetinib concentration in tissues, Sciatic nerve, Range (All)",[2]; [15],(5-51) ng/g
same,"Selumetinib concentration in tissues, Skin, Range (All)",[2]; [15],(9-155) ng/g
same,"Selumetinib concentration in tissues, Cerebral cortex, Median (All)",[2]; [16],51 ng/g
same,"Selumetinib concentration in tissues, Optic nerve, Median (All)",[2]; [16],36 ng/g
same,"Selumetinib concentration in tissues, Sciatic nerve, Median (All)",[2]; [16],25 ng/g
same,"Selumetinib concentration in tissues, Skin, Median (All)",[2]; [16],24 ng/g
same,"Selumetinib concentration in tissues, Cerebral cortex",[2]; [17],63 ng/g and 105 ng/g and 101 ng/g and 20 ng/g
same,"Selumetinib concentration in tissues, Optic nerve",[2]; [17],43 ng/g and 81 ng/g and 101 ng/g and 4 ng/g
same,"Selumetinib concentration in tissues, Sciatic nerve",[2]; [17],20 ng/g and 10 ng/g and 17 ng/g and 5 ng/g
same,"Selumetinib concentration in tissues, Skin",[2]; [17],36 ng/g and 155 ng/g and 14 ng/g and 17 ng/g
same,"Selumetinib concentration in tissues, Cerebral cortex",[2]; [18],67 ng/g and 83 ng/g and 28 ng/g and 64 ng/g
same,"Selumetinib concentration in tissues, Optic nerve",[2]; [18],59 ng/g and 34 ng/g
same,"Selumetinib concentration in tissues, Sciatic nerve",[2]; [18],36 ng/g and 33 ng/g
same,"Selumetinib concentration in tissues, Skin",[2]; [18],16 ng/g and 79 ng/g and 108 ng/g and 26 ng/g
same,"Selumetinib concentration in tissues, Cerebral cortex",[2]; [19],26 ng/g and 42 ng/g and 76 ng/g and 47 ng/g
same,"Selumetinib concentration in tissues, Optic nerve",[2]; [19],24 ng/g and 26 ng/g and 19 ng/g and 46 ng/g
same,"Selumetinib concentration in tissues, Sciatic nerve",[2]; [19],46 ng/g and 38 ng/g and 36 ng/g and 16 ng/g
same,"Selumetinib concentration in tissues, Skin",[2]; [19],22 ng/g and 111 ng/g and 81 ng/g and 12 ng/g
same,"Selumetinib concentration in tissues, Cerebral cortex",[2]; [20],20 ng/g and 15 ng/g and 54 ng/g and 44 ng/g
same,"Selumetinib concentration in tissues, Optic nerve",[2]; [20],35 ng/g and 7 ng/g and 32 ng/g and 36 ng/g
same,"Selumetinib concentration in tissues, Sciatic nerve",[2]; [20],6 ng/g and 9 ng/g and 51 ng/g and 15 ng/g
same,"Selumetinib concentration in tissues, Skin",[2]; [20],9 ng/g and 19 ng/g and 32 ng/g
same,concentration at 2 h,"[2]; male, minipig, optic nerve, 7.3 mg/kg, Selumetinib concentration in tissues, Optic nerve, individual NF1/M minipigs, 2 h after single oral 7.3 mg/kg",43 ng/g
same,concentration at 2 h,"[2]; male, minipig, sciatic nerve, 7.3 mg/kg, Selumetinib concentration in tissues, Sciatic nerve, individual NF1/M minipigs, 2 h after single oral 7.3 mg/kg",29 ng/g
same,Kp at 2 h,"[2]; minipig, brain / plasma, minipigs, single oral 7.3 mg/kg, read-out: median brain–plasma ratio",0.1
same,concentration at 2 h,"[2]; minipig, cerebral cortex, 7.3 mg/kg, Selumetinib concentration in tissues, Cerebral cortex, Median (All), all 16 minipigs, 2 h after single oral 7.3 mg/kg",66 ng/g
same,concentration at 2 h,"[2]; minipig, cerebral cortex, 7.3 mg/kg, Selumetinib concentration in tissues, Cerebral cortex, Median (NF1), NF1 minipigs n = 8, 2 h after single oral 7.3 mg/kg",66 ng/g
same,concentration at 2 h,"[2]; minipig, cerebral cortex, 7.3 mg/kg, Selumetinib concentration in tissues, Cerebral cortex, Median (WT), WT minipigs n = 8, 2 h after single oral 7.3 mg/kg",43 ng/g
same,concentration at 2 h,"[2]; minipig, optic nerve, 7.3 mg/kg, Selumetinib concentration in tissues, Optic nerve, Median (All), all 16 minipigs, 2 h after single oral 7.3 mg/kg",43 ng/g
same,concentration at 2 h,"[2]; minipig, optic nerve, 7.3 mg/kg, Selumetinib concentration in tissues, Optic nerve, Median (NF1), NF1 minipigs n = 8, 2 h after single oral 7.3 mg/kg",43 ng/g
same,concentration at 2 h,"[2]; minipig, optic nerve, 7.3 mg/kg, Selumetinib concentration in tissues, Optic nerve, Median (WT), WT minipigs n = 8, 2 h after single oral 7.3 mg/kg",29 ng/g
same,concentration at 2 h,"[2]; minipig, 7.3 mg/kg, selumetinib concentration, range over all tissues, cerebral cortex, optic nerve, sciatic nerve, skin, all minipigs, 2 h after single oral 7.3 mg/kg",4 to 155 ng/g
same,concentration at 2 h,"[2]; minipig, sciatic nerve, 7.3 mg/kg, Selumetinib concentration in tissues, Sciatic nerve, Median (All), all 16 minipigs, 2 h after single oral 7.3 mg/kg",23 ng/g
same,concentration at 2 h,"[2]; minipig, sciatic nerve, 7.3 mg/kg, Selumetinib concentration in tissues, Sciatic nerve, Median (NF1), NF1 minipigs n = 8, 2 h after single oral 7.3 mg/kg",25 ng/g
same,concentration at 2 h,"[2]; minipig, sciatic nerve, 7.3 mg/kg, Selumetinib concentration in tissues, Sciatic nerve, Median (WT), WT minipigs n = 8, 2 h after single oral 7.3 mg/kg",26 ng/g
same,concentration at 2 h,"[2]; minipig, skin, 7.3 mg/kg, Selumetinib concentration in tissues, Skin, Median (All), all 16 minipigs, 2 h after single oral 7.3 mg/kg",34 ng/g
same,concentration at 2 h,"[2]; minipig, skin, 7.3 mg/kg, Selumetinib concentration in tissues, Skin, Median (NF1), NF1 minipigs n = 8, 2 h after single oral 7.3 mg/kg",56 ng/g
same,concentration at 2 h,"[2]; minipig, skin, 7.3 mg/kg, Selumetinib concentration in tissues, Skin, Median (WT), WT minipigs n = 8, 2 h after single oral 7.3 mg/kg",21 ng/g
